Source: patent publication US12454516B2, “Nitric oxide releasing prodrugs of MDA and MDMA” (priority 2021, dated 2025)

Columns and labels:
[1] = Stability in PBS pH 6.5
[2] = Stability of Prodrug 2-1 in plasma (human); assay type: in vitro ADME
[3] = Stability of Prodrug 2-1 in plasma (rat); assay type: in vitro ADME
[4] = Stability of Prodrug 2-1 in plasma (mouse); assay type: in vitro ADME
[5] = Solubility in FaSSIF; assay type: physicochemical; settings: read-out: Solublity (uM) FaSSIF
[6] = Stability in SGF with pepsin; assay type: in vitro ADME
[7] = Stability in SGF without pepsin; assay type: in vitro ADME
[8] = physchem; settings: buffer, pH 6.5

SMILES | Remaining Percentage (%) 0 min [1] [%] | Remaining Percentage (%) 30 min [1] [%] | Remaining Percentage (%) 60 min [1] [%] | Remaining Percentage (%) 120 min [1] [%] | Remaining Percentage (%) 240 min [1] [%] | half-life [2] [h] | Remaining Percentage (%) 0 min [2] [%] | Remaining Percentage (%) 15 min [2] [%] | Remaining Percentage (%) 30 min [2] [%] | Remaining Percentage (%) 60 min [2] [%] | Remaining Percentage (%) 120 min [2] [%] | half-life [3] [h] | Remaining Percentage (%) 0 min [3] [%] | Remaining Percentage (%) 15 min [3] [%] | Remaining Percentage (%) 30 min [3] [%] | Remaining Percentage (%) 60 min [3] [%] | Remaining Percentage (%) 120 min [3] [%] | half-life [4] [h] | Remaining Percentage (%) 0 min [4] [%] | Remaining Percentage (%) 15 min [4] [%] | further results
O=C(O)CCCc1ccc(N(CCCl)CCCl)cc1 [Chlorambucil, reference compound] | 100 | 62.6 | 39.9 | 15.07 | 2.05 | – | – | – | – | – | – | – | – | – | – | – | – | – | – | – | –
C[C@H](Cc1ccc2c(c1)OCO2)NC(=O)CCCO[N+](=O)[O-] [Compound 2-1, (R)-4-((1-(benzo[d][1,3]dioxol-5-yl)propan-2-yl)amino)-4-oxobutyl nitrate] | 100 | 104.05 | 105.81 | 98.20 | 83.83 | 15.1 | 100.00 | 100.94 | 102.03 | 90.66 | 93.79 | 3.84 | 100.00 | 96.93 | 93.53 | 81.00 | 70.84 | 26.2 | 100.00 | 95.13 | Remaining Percentage (%) 30 min [4]: 98.19%; Remaining Percentage (%) 60 min [4]: 95.02%; Remaining Percentage (%) 120 min [4]: 93.59%; solubility [5]: 284 µM; half-life [6]: 13.5 h; Remaining Percentage (%) 0 min [6]: 100%; Remaining Percentage (%) 30 min [6]: 98.88%; Remaining Percentage (%) 60 min [6]: 98.96%; Remaining Percentage (%) 120 min [6]: 89.53%; Remaining Percentage (%) 240 min [6]: 82.75%; half-life [7]: 14.3 h; Remaining Percentage (%) 0 min [7]: 100%; Remaining Percentage (%) 30 min [7]: 95.42%; Remaining Percentage (%) 60 min [7]: 99.51%; Remaining Percentage (%) 120 min [7]: 93.54%; Remaining Percentage (%) 240 min [7]: 81.87%; half-life [8]: 13.4 h
CC[C@H]1OC(=O)[C@H](C)[C@@H](O[C@H]2C[C@@](C)(OC)[C@@H](O)[C@H](C)O2)[C@H](C)[C@@H](O[C@@H]2O[C@H](C)C[C@H](N(C)C)[C@H]2O)[C@](C)(O)C[C@@H](C)C(=O)[C@H](C)[C@@H](O)[C@]1(C)O [Erythromycin, reference compound] | – | – | – | – | – | – | – | – | – | – | – | – | – | – | – | – | – | – | – | – | Remaining Percentage (%) 0 min [6]: 100%; Remaining Percentage (%) 30 min [6]: 59.9%; Remaining Percentage (%) 60 min [6]: 39.02%; Remaining Percentage (%) 120 min [6]: 12.40%; Remaining Percentage (%) 240 min [6]: 1.57%; Remaining Percentage (%) 0 min [7]: 100%; Remaining Percentage (%) 30 min [7]: 60.53%; Remaining Percentage (%) 60 min [7]: 34.86%; Remaining Percentage (%) 120 min [7]: 11.45%; Remaining Percentage (%) 240 min [7]: 1.64%
CC[C@H](C)C(=O)O[C@H]1C[C@@H](C)C=C2C=C[C@H](C)[C@H](CC[C@@H]3C[C@@H](O)CC(=O)O3)[C@H]21 [Lovastatin, reference compound] | – | – | – | – | – | – | – | – | – | – | – | 0.0747 | 100.00 | 9.82 | 0.00 | 0.00 | 0.00 | – | – | – | –
CC(C)[N+](C)(CCOC(=O)C1c2ccccc2Oc2ccccc21)C(C)C [Propantheline, reference compound] | – | – | – | – | – | 0.246 | 100.00 | 72.22 | 39.13 | 6.46 | 0.12 | – | – | – | – | – | – | 0.449 | 100.00 | 72.20 | Remaining Percentage (%) 30 min [4]: 49.21%; Remaining Percentage (%) 60 min [4]: 22.77%; Remaining Percentage (%) 120 min [4]: 4.69%
